From ChEMBL document CHEMBL1124905, “Synthesis of new (+-)-3,5-dihydroxypentyl nucleoside analogues from 1-amino-5-(benzyloxy)pentan-3-ol and their antiviral evaluation” (J Med Chem, 1990)
The source made the active and inactive calls. The rule behind the calls is not given here.

Legend:
[1] = system: Human immunodeficiency virus 1; test: Antiviral activity against HIV-1 was determined; No inhibition; assay type: functional, organism-based
Human betaherpesvirus 5 = test: Antiviral activity against HCMV was determined; No inhibition; assay type: functional, organism-based
MRC5 = test: Concentration required for cytotoxicity of MRC5 cell line was determined; assay type: functional, cell-based; details: Homo sapiens
Human alphaherpesvirus 1 [2] = test: Concentration required for suppression of the CPE (Cytopathic effect) of HSV-1; assay type: functional, organism-based; details: herpes simplex virus
Human alphaherpesvirus 1 [3] = test: Compound tested for inhibition of theCPE (Cytopathic effect) of HSV-1 at 12.5 ug/mL; assay type: functional, herpes simplex virus
[4] = Compound tested for toxic activity at 100 ug/mL; Not toxic; assay type: ADME

Row | Structure (SMILES) | inhibition [1] | inhibition (Human betaherpesvirus 5) | other results
1 | Nc1nc2c(ncn2CC[C@@H](O)CO)c(=O)[nH]1 | inactive | inactive | –
2 | Nc1ncnc2c1ncn2C=C=CCO | inactive | inactive | –
3 | Nc1ncnc2c1ncn2CCC(O)CCO (configuration not stated) | inactive | inactive | Concentration (MRC5): 25 µg/mL
4 | Nc1nc(O)c2ncn(CC[C@H](O)CCO)c2n1 | inactive | inactive | Concentration (Human alphaherpesvirus 1 [2]): 50 µg/mL; inhibition at 12.5 µg/mL (Human alphaherpesvirus 1 [3]): 50%; Toxicity [4]: Non-toxic
5 | Nc1nc(O)c2ncn(CC(CO)CCO)c2n1 (configuration not stated) | inactive | inactive | –
6 | Nc1ncnc2c1ncn2C[C@@H](CO)OCP(=O)(O)O | inactive | inactive | –
7 | Cc1cn(CCC(O)CCO)c(=O)[nH]c1=O (configuration not stated) | inactive | inactive | –
8 | Nc1nc2c(ncn2COC(CO)CO)c(=O)[nH]1 | – | – | NA [1]: inactive; NA (Human betaherpesvirus 5): inactive
9 | Nc1ccn(CCC(O)CCO)c(=O)n1 (configuration not stated) | inactive | inactive | –
10 | Nc1nc2c(ncn2CCCCO)c(=O)[nH]1 | inactive | inactive | –
11 | Nc1ncnc2c1ncn2CCOCP(=O)(O)O | inactive | inactive | –
12 | Nc1nc(O)c2ncn(CCC(CO)CO)c2n1 | inactive | inactive | –
13 | Nc1ncnc2c1ncn2C[C@H](O)CO | inactive | inactive | –
14 | Nc1nc2c(ncn2COCCO)c(=O)[nH]1 | inactive | inactive | –
